Experimental data as given in patent US20190390277A1, “DIAGNOSIS OF PARKINSON'S DISEASE ON THE BASIS OF DECREASED OVERALL TRANSLATION” (ÅBO AKADEMI UNIVERSITY, priority 2016, published 2019).
Entries after “also recorded” stand apart in the source; their conditions may differ.

Legend:
dopaminergic neurons [1] = assay: Rotenone-induced neurite atrophy of TH-positive dopaminergic neurons in midbrain cultures; format: cell-based, rat; conditions: 24 h; for effect on rotenone induced loss of neurites in dopaminergic neurons: LRRK2-IN1 1 μM, GSK-2578215A 1 μM, MLi-2 10 or 50 nM, with rotenone
Method: The cultures were immunostained for Tyrosine hydroxylase to identify dopaminergic neurons. The percentage of dopaminergic, TH-positive cells that had intact neurites are shown. […] Mean data +/− standard deviation from two independent experiments are shown. Over 300 cells were scored per condition. b) A representative fluorescence micrograph showing TH immunostaining (green) dopaminergic neurons is shown. (c,d) Treatment with three structurally different LRRK2 inhibitors, LRRK2-IN1 (1 μM), GSK-2578215A (1 μM) or MLi-2 (10 or 50 nM) prevented rotenone induced loss of neurites in the dopaminergic neurons. […] Standard errors of the mean are shown. #, p<0.0001.
Methods. Rotenone treatment of cell cultures—Midbrain neurons from P0 rat were plated at a density of 200,000 cells per well. At 3 days in vitro, cells were treated with rotenone in DMSO with or without IN1, GSK-2578215A of MLi-2 at the concentrations indicated. After 24 h, cells were fixed with 4% PFA in PBS and tyrosine hydroxylase (TH) was detected by standard immunostaining methods obvious to those skilled in the art. Cells were imaged using a Zeiss AxioVert 200M microscope. To measure atrophy, the % of TH-positive neurons with intact neurites was scored.

hippocampal neurons [2] = assay: FUNCAT (AHA/Alexa-488) protein translation in hippocampal neurons; format: cell-based, rat; conditions: for dose (as low as) at which protein synthesis was significantly increased: hippocampal neuron somas and dendrites; for level of de novo protein synthesis (fluorescence intensity): hippocampal neurons, soma and dendrites
Source text: Objective. To test whether Lrrk2 regulated ribosomal function in neurons, we measured the effect of three structurally independent inhibitors of Lrrk2 on de novo protein synthesis using non-canonical amino acid labeling. Rat hippocampal neurons were labelled using L-azido-homoalanine (AHA), a methionine analogue, followed by copper-I-catalyzed alkyne-azide cycloaddition of Alexa-488 with an alkyne moiety to visualize newly synthesized proteins, as previously de-scribed^8.
Methods. Measuring protein translation in hippocampal neurons using FUNCAT. To measure protein translation, hippocampal neurons were plated at densities of 100,000 cells per well on round coverslips (1.3 cm diameter) in 24-well plates. Protein translation was measured following 20 h after plating. Cells were washed once and incubated with methionine-free DMEM medium (Gibco, Thermo Fisher Scientific) supplemented with 2 mM glutamine. Then 1 mM L-azidohomoalanine (AHA) was added for 30 min. Cells were washed with 1 ml PBS and fixed with 4% paraformaldehyde. LRRK2 inhibitors, when used, were added in the methionine-free medium and retained throughout the AHA labelling procedure. Cells were permeabilized in block solution (0.25% Triton X100, 0.2% BSA, 5% sucrose, 10% horse serum in PBS), and washed 5 times with 1 ml of 3% BSA in PBS. In situ labeling with AHA was achieved using a click-it reaction to covalently Alexa-488, using reagents from ThermoFisher Life Technologies (catalogue #A10267). Coverslips were mounted in Mowiol containing 2.5% 1,4-Diazabicyclo[2.2.2]octane. Fluorescent images were acquired using a Leica DMRE microscope and Hamamatsu Photonics ORCA C4742-95 CCD camera and Zen software (Carl Zeiss). Mean fluorescence intensities were measured from regions of interest in the perisomal region. Dendrite measurements were taken from line intensities (10 μm lines from the soma into the dendrite).

patient skin fibroblasts = assay: Nascent protein synthesis (AHA/Alexa-488) in PD patient skin fibroblasts; format: cell-based, human; conditions: sporadic and G2019S PD fibroblasts; 1 μM IN1 or 0.01 μM MLi-2
Method: Methods. For FIG. 7, we measured mRNA translation in fibroblasts cultivated from patient skin biopsies using the non-canonical labelling approach outlined in example 4 with the following modifications. Fibroblasts were passaged upon reaching 95% confluence and assayed at passage 7-9. For measurement of nascent protein synthesis, fibroblasts at 48 h post plating were depleted of methionine and incubated with AHA, followed by AHA-click conjugation of Alexa-488 as described in the methods section of example 4. Average somatic fluorescent intensities were measured. As not all fibroblast lines could be assayed simultaneously, patient lines were paired with one or more control lines of equivalent passage and assayed on the same day.

dopaminergic neurons [3] = assay: FUNCAT protein translation in midbrain cultures (dopaminergic neurons); format: cell-based; conditions: TH-positive neurons, 3 days post-plating
Source text: FIG. 6 uses click chemistry to label newly synthesised proteins with AHA. […] Dopaminergic neurons are visualised by tyrosine hydroxylase (TH) staining. a) Representative images of midbrain cultures treated with increasing concentrations of Lrrk2 IN2, and stained for TH is shown. b,c) protein translation in the somas of TH-positive and TH-negative cells is shown. d) The effect of anisomycin (to inhibit translation) on mid brain culture de novo protein synthesis is shown by representative images. e) Quantitative data from d is shown. p-values are shown on the graphs above the data points to which they apply.
Methods. To measure protein translation in dopaminergic neurons, mid brain cultures were plated at densities of 500,000 cells per well on round coverslips (1.3 cm diameter) in 24-well plates. At 3 days post-plating neurons underwent FUNCAT (see example 4). Dopaminergic neurons were detected by tyrosine hydroxylase immunofluorescence. Fluorescent intensity was measured as described in example 4 (methods).

PBMCs and fibroblasts = assay: AHA labelling, biotin-alkyne enrichment and anti-biotin-HRP immunoblot of nascent proteins in PBMCs and fibroblasts; format: cell-based, human; conditions: AHA-labelled PBMCs and fibroblasts, streptavidin bead purification
Source text: Patient samples were from the NINDS-Coriell Institute in the USA, the European Biobank in Milan and the Turku University Hospital (T.U.H.) cohort in Finland. a) A heat map showing intensity values for MS/MS-identified nascent proteins from AHA-labelled cells (fibroblasts and PBMCs). Nascent proteins were isolated following covalent linkage to alkyne-agarose beads. After tryptic digestion, the released peptides were sequenced by mass spectrometry and identified using Maxquant software. As negative controls to determine non-specific protein binding, cells were labelled with methionine instead of AHA. […] This approach yields a set of peptides that can be rapidly quantitated using a mass spectrometer using data dependant acquisition (DDA) using Selected Reaction Monitoring or Parallel Reaction Monitoring or by data independent acquisition (DIA) or using other types of mass spectrometry methods. […] It is compared to samples that were labelled with methionine instead of AHA. […]
Sepharose was washed 2× with 1 ml LiCl buffer (500 mM LiCl2, 100 mM Tris, pH 7.6, 0.1% TX100, 1 mM DTT), followed by 4×1 ml PBS washes. […] Samples were either in-gel digested with trypsin for MS/MS identification (example 1) or transferred to nitrocellulose for quantitative immunoblot detection using an anti-biotin, horse-radish peroxidase (HRP)-conjugated antibody (Cell Signalling Technology) (example 9b). […]

BHK21 cells = assay: Protein translation by AHA labelling and click Alexa-488 in rotenone-treated BHK21 cells; format: cell-based; conditions: rotenone 100 nM, 1 μM LRRK2-IN1
Method: Furthermore, LRRK2-G2019S directly impairs protein translation in a reconstituted translation system. a) LRRK2 activity is inferred using a phospho-specific antibody ([…]) that recognises the active form of LRRK2. b) Quantitative data from 6 independent repeats as shown in (a). c, d) To determine whether inhibition of LRRK2 kinase activity could recover normal protein translation in cultured cells, BHK21 cells were treated with or without rotenone (100 nM) in the presence or absence of the indicated concentration of LRRK2-IN1. Protein translation was measured using non-canonical amino acid labelling with AHA followed by copper-catalysed click addition of alkyne-Alexa-488. Representative fluorescent micrographs (c) and quantitative data (d) are shown. […] Standard errors of the mean are plotted. #, p<0.0001.
To determine whether inhibition of LRRK2 activity could recover normal translation in BHK21 cells following rotenone treatment, BHK21 cells with or without prior treatment (30 min) with LRRK2 inhibitor (1 or 10 μM of IN1) were treated with rotenone or carrier (control) as indicated. Translation was visualized following AHA labeling and immunofluorescence quantified as earlier.

Lrrk2 [4] = target: Lrrk2 (Homo sapiens, UniProt Q5S007); conditions: blocks Lrrk2; read-out: biochemical IC50; cited from earlier work
Lrrk2 (Homo sapiens, UniProt Q5S007), sequence (Q5S007 whole entry, species assumed): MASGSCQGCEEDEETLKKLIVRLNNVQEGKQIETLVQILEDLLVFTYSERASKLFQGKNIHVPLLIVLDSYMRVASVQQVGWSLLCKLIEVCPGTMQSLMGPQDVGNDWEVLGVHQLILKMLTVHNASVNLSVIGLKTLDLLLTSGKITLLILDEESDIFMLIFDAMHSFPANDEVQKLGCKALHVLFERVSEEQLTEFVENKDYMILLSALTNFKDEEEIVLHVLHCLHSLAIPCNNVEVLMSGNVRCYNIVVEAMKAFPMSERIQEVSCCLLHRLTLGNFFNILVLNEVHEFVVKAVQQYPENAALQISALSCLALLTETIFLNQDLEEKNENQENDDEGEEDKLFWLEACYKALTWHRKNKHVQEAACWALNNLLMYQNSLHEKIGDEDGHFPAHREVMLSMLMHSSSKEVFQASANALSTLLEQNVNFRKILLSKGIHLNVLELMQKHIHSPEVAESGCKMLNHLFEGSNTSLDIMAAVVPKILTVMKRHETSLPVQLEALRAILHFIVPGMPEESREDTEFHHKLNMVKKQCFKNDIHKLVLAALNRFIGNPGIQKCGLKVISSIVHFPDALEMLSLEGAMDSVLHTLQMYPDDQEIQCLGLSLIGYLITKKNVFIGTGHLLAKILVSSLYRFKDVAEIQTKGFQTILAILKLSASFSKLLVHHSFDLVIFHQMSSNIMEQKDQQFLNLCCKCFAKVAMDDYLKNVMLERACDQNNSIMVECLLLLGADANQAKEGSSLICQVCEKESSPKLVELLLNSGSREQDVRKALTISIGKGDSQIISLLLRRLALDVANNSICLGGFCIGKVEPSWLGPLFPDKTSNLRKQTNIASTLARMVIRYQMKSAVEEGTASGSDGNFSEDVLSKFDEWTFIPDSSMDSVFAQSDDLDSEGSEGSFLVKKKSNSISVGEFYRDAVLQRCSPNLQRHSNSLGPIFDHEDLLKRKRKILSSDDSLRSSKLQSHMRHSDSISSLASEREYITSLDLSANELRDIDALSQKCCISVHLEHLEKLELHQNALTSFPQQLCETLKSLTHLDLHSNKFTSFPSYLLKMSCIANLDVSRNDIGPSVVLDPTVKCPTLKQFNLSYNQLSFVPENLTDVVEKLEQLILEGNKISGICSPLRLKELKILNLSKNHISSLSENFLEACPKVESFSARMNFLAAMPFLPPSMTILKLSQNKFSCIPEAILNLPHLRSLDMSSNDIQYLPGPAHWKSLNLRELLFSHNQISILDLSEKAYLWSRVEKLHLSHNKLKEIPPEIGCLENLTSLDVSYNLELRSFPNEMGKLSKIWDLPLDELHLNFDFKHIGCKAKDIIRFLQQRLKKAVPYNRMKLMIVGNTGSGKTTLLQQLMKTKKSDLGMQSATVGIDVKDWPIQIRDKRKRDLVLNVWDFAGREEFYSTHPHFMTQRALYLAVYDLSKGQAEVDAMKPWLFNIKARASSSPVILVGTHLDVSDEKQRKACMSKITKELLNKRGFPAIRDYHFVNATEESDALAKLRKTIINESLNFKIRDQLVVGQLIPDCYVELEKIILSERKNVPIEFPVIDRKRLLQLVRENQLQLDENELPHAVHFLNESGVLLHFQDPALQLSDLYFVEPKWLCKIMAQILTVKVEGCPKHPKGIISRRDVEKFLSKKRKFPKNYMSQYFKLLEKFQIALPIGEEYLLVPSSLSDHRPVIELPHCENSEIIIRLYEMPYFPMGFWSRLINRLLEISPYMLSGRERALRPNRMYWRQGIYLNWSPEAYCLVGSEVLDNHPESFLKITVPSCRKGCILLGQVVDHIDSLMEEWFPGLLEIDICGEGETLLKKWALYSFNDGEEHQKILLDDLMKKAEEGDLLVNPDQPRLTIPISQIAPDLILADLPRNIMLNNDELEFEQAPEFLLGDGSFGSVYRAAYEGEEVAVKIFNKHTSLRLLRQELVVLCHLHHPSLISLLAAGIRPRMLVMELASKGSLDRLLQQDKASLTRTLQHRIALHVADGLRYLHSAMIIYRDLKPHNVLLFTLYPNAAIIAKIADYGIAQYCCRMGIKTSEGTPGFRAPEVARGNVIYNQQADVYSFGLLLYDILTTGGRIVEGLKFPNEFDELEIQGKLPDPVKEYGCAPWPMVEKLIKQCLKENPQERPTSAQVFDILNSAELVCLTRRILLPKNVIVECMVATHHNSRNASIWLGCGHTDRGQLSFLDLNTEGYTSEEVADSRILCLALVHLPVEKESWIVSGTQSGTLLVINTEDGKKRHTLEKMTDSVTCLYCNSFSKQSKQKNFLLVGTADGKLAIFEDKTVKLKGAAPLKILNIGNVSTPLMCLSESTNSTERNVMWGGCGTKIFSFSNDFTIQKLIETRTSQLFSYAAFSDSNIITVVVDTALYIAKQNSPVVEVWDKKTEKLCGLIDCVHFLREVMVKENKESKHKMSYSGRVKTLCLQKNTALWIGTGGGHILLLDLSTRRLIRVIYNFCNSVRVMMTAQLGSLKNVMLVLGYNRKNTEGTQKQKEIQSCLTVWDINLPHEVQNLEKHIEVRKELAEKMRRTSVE

hippocampal neurons [5] = assay: S35-methionine metabolic labelling of de novo protein synthesis in hippocampal neurons; format: cell-based; conditions: rotenone 0.01-10 μM, 2 hr
Method: Methods. Measurement of protein translation using various S35-methioine-labelling—In order to model PD in vitro, hippocampal neurons were metabolically labelled with S35-methionine. Hippocampal neurons in 24 well plates were transferred to Met/Cys-free medium (Invitrogen, Gibco). Cells were treated with for 30 min 37 C, 5% CO2. 50 μl per well of labeling medium (100 μCi Met-S35/ml) was added and cells grown at 37°, 5% CO2 for 2 hr in the presence or absence of rotenone (0.01-10 μM). Cells were washed and lysed in 75 μl Laemmli lysis buffer. Samples were separated by SDS PAGE, incubated with EN3HANCE (NEN), gels dried and exposed to auto-radiographic film with intensifying screen to determine relative levels of de novo protein synthesis.

Lrrk2 [6] = target: T1, Lrrk2 (Mesocricetus auratus, UniProt A0A1U7Q7Z2); assay: LRRK2 activity by phospho-S935-LRRK2 immunoblot in BHK21 cells; format: cell-based; conditions: intact BHK21 cells, rotenone 4 h
T1 construct: endogenous in cells; host or cells: BHK21 cells
T1 sequence (A0A1U7Q7Z2 1-2527): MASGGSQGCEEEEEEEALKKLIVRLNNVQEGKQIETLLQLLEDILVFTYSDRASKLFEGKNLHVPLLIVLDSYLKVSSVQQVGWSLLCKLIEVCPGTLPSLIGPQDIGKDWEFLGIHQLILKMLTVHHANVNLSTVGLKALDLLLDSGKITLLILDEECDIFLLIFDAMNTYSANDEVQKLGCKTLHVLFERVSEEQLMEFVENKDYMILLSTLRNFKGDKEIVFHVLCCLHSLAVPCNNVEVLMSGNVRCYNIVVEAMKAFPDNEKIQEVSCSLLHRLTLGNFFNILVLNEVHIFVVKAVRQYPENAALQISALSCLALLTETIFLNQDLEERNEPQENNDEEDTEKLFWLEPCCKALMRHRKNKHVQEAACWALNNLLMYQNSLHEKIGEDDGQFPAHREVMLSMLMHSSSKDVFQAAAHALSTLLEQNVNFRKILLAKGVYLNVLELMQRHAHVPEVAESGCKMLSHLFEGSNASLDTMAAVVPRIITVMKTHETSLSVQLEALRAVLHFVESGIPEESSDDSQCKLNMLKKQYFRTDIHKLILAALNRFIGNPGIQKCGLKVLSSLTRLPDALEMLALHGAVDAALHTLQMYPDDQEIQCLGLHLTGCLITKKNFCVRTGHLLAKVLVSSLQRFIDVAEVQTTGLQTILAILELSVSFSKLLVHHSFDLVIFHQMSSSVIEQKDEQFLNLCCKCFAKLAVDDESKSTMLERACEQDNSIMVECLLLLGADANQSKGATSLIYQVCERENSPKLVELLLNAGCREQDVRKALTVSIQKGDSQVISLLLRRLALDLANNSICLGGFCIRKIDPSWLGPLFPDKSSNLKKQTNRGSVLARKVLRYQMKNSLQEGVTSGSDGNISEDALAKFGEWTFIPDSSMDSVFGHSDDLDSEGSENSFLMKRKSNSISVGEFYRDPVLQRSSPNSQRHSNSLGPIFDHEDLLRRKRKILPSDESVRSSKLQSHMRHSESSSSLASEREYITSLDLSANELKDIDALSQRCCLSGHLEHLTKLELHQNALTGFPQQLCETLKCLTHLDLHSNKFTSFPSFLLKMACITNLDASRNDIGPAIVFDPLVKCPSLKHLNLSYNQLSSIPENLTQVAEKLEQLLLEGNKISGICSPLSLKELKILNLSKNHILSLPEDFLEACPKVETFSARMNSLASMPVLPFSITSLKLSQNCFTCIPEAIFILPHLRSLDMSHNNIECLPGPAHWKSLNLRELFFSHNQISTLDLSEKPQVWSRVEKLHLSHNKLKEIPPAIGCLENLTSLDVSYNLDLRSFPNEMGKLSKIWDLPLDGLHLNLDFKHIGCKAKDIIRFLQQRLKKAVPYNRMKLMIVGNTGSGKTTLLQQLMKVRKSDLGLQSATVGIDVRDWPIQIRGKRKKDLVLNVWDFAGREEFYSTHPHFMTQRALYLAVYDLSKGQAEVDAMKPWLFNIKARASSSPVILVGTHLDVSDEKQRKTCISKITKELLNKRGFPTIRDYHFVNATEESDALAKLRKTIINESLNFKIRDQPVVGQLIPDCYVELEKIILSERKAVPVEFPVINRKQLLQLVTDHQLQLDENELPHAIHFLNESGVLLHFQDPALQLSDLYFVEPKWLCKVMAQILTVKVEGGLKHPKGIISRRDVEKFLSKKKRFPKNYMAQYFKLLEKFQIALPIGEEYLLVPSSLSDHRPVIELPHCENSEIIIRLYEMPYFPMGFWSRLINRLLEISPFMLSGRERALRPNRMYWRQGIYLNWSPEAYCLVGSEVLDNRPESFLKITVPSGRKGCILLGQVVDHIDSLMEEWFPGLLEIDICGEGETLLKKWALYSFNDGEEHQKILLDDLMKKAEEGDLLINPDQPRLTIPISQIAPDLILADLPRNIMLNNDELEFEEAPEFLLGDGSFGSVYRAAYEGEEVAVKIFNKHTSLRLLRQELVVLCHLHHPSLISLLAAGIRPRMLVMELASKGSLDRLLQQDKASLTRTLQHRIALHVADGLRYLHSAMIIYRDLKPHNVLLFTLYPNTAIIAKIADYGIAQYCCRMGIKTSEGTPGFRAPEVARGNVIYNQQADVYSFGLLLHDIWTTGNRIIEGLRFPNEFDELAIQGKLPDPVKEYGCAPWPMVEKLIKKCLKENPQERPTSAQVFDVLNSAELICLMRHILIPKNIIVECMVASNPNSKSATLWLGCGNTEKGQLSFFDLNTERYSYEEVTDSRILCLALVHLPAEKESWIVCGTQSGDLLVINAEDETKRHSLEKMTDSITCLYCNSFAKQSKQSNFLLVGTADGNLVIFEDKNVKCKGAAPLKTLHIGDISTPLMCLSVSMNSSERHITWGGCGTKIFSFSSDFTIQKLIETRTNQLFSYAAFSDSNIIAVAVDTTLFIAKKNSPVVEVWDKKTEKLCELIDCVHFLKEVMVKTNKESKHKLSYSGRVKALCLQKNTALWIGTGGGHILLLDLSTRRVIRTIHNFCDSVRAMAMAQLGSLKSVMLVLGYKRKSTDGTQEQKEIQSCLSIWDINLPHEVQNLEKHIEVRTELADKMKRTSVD
Method: Methods. To examine the effect of rotenone treatment on LRRK2 activity, BHK21 cells were treated with or without the indicated dose of rotenone for 4 h. Cells were lysed in Laemmli buffer and proteins separated by SDS PAGE. LRRK2 activity was determined by immunoblotting with an antibody detecting phospho-S935-LRRK2. Blots were reprobed with an antibody detecting LRRK2 to establish loading variability. LRRK2 activity was quantified by densitometry of gel exposures captured using the Gel Doc XR system (Biorad).

Row | Compound | effect on rotenone induced loss of neurites in dopaminergic neurons (dopaminergic neurons [1]) | dose (as low as) at which protein synthesis was significantly increased (hippocampal neurons [2]) [µM] | level of de novo protein synthesis (fluorescence intensity) (hippocampal neurons [2]) | reversal of decreased protein synthesis in PD patient fibroblasts (patient skin fibroblasts) | other results
1 | 3-(4-Pyrinimidyl) Indazole [MLi-2] | prevented | 0.01 | increased | reversed to a normal level | –
2 | COc1ccc(C[C@H]2NC[C@H](O)[C@H]2OC(C)=O)cc1 [Anisomycin] | – | – | effectively inhibited | – | protein translation (fluorescence) (dopaminergic neurons [3]): effectively reduced; anti-biotin immunoblot signal of nascent proteins (PBMCs and fibroblasts): no signal
3 | O=C(Nc1cccnc1)c1cc(-c2ccnc(F)c2)ccc1OCc1ccccc1 [GSK-2578215A] | prevented | 0.1 | – | – | –
4 | COc1cc(C(=O)N2CCC(N3CCN(C)CC3)CC2)ccc1Nc1ncc2c(n1)N(C)c1ccccc1C(=O)N2C [LRRK2-IN1] | prevented | 0.1 | – | reversed | protein translation level after rotenone (BHK21 cells): recovered to control level; IC50 (Lrrk2 [4]): 10 nM
5 | C=C(C)[C@H]1Cc2c(ccc3c2O[C@@H]2COc4cc(OC)c(OC)cc4[C@@H]2C3=O)O1 [Rotenone] | – | – | – | – | de novo protein synthesis (S35-methionine labelling) (hippocampal neurons [5]): dose-dependently decreased; LRRK2 activity (phospho-S935-LRRK2) (Lrrk2 [6]): dose dependently increased; percentage of TH-positive cells with intact neurites (dopaminergic neurons [1]; rotenone 0-100 nM): induced atrophy; also recorded: dose dependent loss of neurites
